Laboratory results reported in patent US10745352B2, “Dual function molecules for histone deacetylase inhibition and ataxia telangiectasia mutated activation and methods of use thereof” (Shuttle Pharmaceuticals, Inc., priority 2015, dated 2020).

Assays:
pan-HDACs = experiment: Pan-HDAC assay (Fluor-de-Lys fluorometric kit, HeLa Nuclear Extract); assay type: biochemical; conditions: values are average EC50, read-out: EC50 against pan-HDACs
Protocol: Certain compounds of the invention were tested in a pan-HDAC assay to determine the ability of such compounds to inhibit HDAC protein. Specifically, the compounds tested included: N-(6-(hydroxyamino)-6-oxohexyl)-3-methyl-1H-indole-2-carboxamide (SP-1-161) (FIG. 8A); N^1-hydroxy-N^6-(2-(2-methyl-1H-indol-3-yl)ethyl)octanediamide (SP-1-163) (FIG. 8A); (S)—N-(6-(hydroxyamino)-6-oxohexyl)-1-tosylindoline-2-carboxamide (SP-1-169) (FIG. 8B); and (S)-1-((5-(dimethylamino)naphthalene-1-yl)sulfonyl)-N-(6-(hydroxyamino)-6-oxoheyl)indoline-carboxamide (SP-1-171) (FIG. 8B).
The Pan HDAC assay was performed as follows:
Materials: Enzo Fluor-de-Lys HDAC fluorometric activity assay kit; 360 nm excitation 460 nm emission Plate Reader; Disposable pipettes; Pipet-aid; Pipette tips; Micro-pipetter; DMSO; Sterile micro-tubes and conical tubes; and Micro-centrifuge.
Test compounds and control preparation: All test compounds' stock solutions were made in 100% DMSO. Test compound dilutions were made in HDAC Assay buffer with a final concentration of DMSO less than or equal to 1%. Vehicle control was HDAC Assay buffer with 1% DMSO.
The reagents for the assay were prepared as follows:
1. All kit components were defrosted and these, and all dilutions described below, were kept on ice until use. All undiluted kit components are stable for several hours on ice.
2. A sufficient amount of HeLa Nuclear Extract (BML-KI140) or other HDAC source diluted in Assay Buffer (BML-KI143) was prepared to provide for the assays that were performed (# of wells×15 μl). A 30-fold dilution of the HeLa Extract means that 15 μl contains 0.5 μl of the undiluted Extract, an appropriate amount to use per well.
3. Dilution(s) of Trichostatin A and/or Test Inhibitors were prepared in Assay Buffer (BML-KI143). Since 10 μl were used per well, and since the final volume of the HDAC reaction was 50 μl, these inhibitor dilutions were 5× their final concentration.
4. Dilution(s) of the Fluor de Lys® Substrate (BML-KI104; 50 mM) were prepared in Assay Buffer (BML-KI143) that were 2× the desired final concentration(s). For inhibitor screening, substrate concentrations at or below the Km are recommended. Twenty-five μL were used per well. Initial dilutions of 25-fold or greater in Assay Buffer (2.0 mM or less) yielded stable solutions (see NOTE on freezing and thawing below). Rapid mixing and dilution into room temperature buffer helped to prevent precipitation at high substrate concentration. NOTE: Freezing/thawing of Fluor de Lys® Substrate solutions in Assay Buffer may cause precipitation of the Substrate. Dilute only amount necessary for one day's experiment.
5. Shortly before use (<30 min.), sufficient Fluor de Lys® Developer was prepared for the assays to be performed (50 μl per well). […]

[1] = system: breast cancer cells (MCF7 cells); experiment: Clonogenic cytotoxicity assay, breast cancer cells; assay type: cell-based; conditions: Homo sapiens, cell line not named in the sentence (FIG. 9: MCF7 and 184A1)
Protocol: Certain compounds of the invention were tested in both an MTT cytotoxicity assay and clonogenic cytotoxicity assay against breast cancer cells (MCF7 cells) and normal breast tissue cells (184A1 cells) to determine the cytotoxic effect of such cells as a function of concentration.
Specifically, the compounds tested included: N-(6-(hydroxyamino)-6-oxohexyl)-3-methyl-1H-indole-2-carboxamide (SP-1-161); -hydroxy-N^6-(2-(2-methyl-1H-indol-3-yl)ethyl)octanediamide (SP-1-163); (S)—N-(6-(hydroxyamino)-6-oxohexyl)-1-tosylindoline-2-carboxamide (SP-1-169); and (S)-1-((5-(dimethylamino)naphthalene-1-yl)sulfonyl)-N-(6-(hydroxyamino)-6-oxoheyl)indoline-carboxamide (SP-1-171).

Cc1c(C(=O)NCCCCCC(=O)NO)[nH]c2ccccc12 [SP-1-161, N-(6-(hydroxyamino)-6-oxohexyl)-3-methyl-1H-indole-2-carboxamide]
EC50 (pan-HDACs): 29.7 nM
IC50 [1]: 276 nM
